Data published in publication PMC5271583 (Bioorganic & medicinal chemistry letters, 2016).
pIC50: −log10 of the molar value. Like-named read-outs stand apart in the source and are kept apart here.

Key:
Type in all cases: cell-based, rodent
[1] = biological target: CRAC channel (Rattus norvegicus, UniProt Q5M848); assay: Inhibition of Ca2+ influx in thapsigargin-activated RBL-2H3 mast cells; conditions: for inhibition at 100 µM: RBL-2H3, read-out: Inhibition of Ca2+ influx at 100 µM (no IC50)
[2] = tested on: TNFα; assay: TNFα protein secretion by thapsigargin-activated RBL cells, ELISA; conditions: 4 h, read-out: IC50 (µM) TNFα
[3] = tested on: RBL-2H3 cells; assay: β-hexosaminidase release; conditions: highest concentration tested
[4] = tested on: NFAT-c1; conditions: 10 µM and higher concentrations

Chain of CRAC channel (Q5M848 whole entry): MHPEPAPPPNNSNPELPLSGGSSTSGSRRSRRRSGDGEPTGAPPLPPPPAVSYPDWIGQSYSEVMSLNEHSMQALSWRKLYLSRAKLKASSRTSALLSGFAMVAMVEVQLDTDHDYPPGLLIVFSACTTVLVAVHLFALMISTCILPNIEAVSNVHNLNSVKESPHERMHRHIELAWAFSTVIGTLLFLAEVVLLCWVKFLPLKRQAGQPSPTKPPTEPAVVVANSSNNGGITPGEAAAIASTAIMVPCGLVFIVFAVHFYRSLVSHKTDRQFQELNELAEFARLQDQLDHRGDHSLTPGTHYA

Compound: O=C(Nc1nn(Cc2ccc(Cl)cc2Cl)c2ccccc12)c1ccc(F)cc1F [Compound 9f]
- inhibition at 100 µM [1]: < 50%

Compound: O=C(Nc1cnns1)c1nn(Cc2ccc(Cl)cc2Cl)c2ccccc12 [Compound 12h]
- inhibition at 100 µM [1]: < 50%

Compound: O=C(Nc1ccccc1F)c1nn(Cc2ccc(Cl)cc2Cl)c2ccccc12 [Compound 12c]
- pIC50 [1]: < 4.52

Compound: O=C(Nc1ccc(F)cc1F)c1nn(Cc2ccc(Cl)cc2Cl)c2ccccc12 [Compound 12e]
- IC50 [2]: 0.64 µM

Compound: Cc1nnsc1C(=O)Nc1nn(Cc2ccc(Cl)cc2Cl)c2ccccc12 [Compound 9e]
- pIC50 [1]: < 4.52
- inhibition at 30 µM ([1]; RBL-2H3, read-out: Inhibition of Ca2+ influx at 30 µM): ~50%

Compound: O=C(Nc1nn(Cc2ccc(Cl)cc2Cl)c2ccccc12)c1c(F)cccc1F [Compound 9a]
- inhibition at 100 µM [1]: < 50%

Compound: N-[1-[(2,4-dichlorophenyl)methyl]indazol-3-yl]-3-fluoro-pyridine-4-carboxamide [Compound 12d]
- IC50 ([1]; read-out: IC50 (µM) Ca2+ influx, Table 3, SD <20%): 0.67 µM
- IC50 ([1]; read-out: IC50 (µM), inhibition of Ca2+ influx, indazole derivatives, Table 1, RBL-2H3 cells activated with Tg 1 µM, SD <35%): 0.67 µM
- Inhibition of β-hex release (in words) [3]: nearly complete inhibition of β-hex release
- Level of nuclear NFAT (in words) [4]: restore the levels of nuclear NFAT to that of resting MCs
